In ChEMBL document CHEMBL3621167, “Therapeutic Potential of 5-HT6 Receptor Agonists” (J Med Chem, 2015) one finds Ratio Ki, Ki and EC50 data, which are given here for two molecules.

A word on the Ki: it is the dissociation constant of the complex between target and ligand, obtained from inhibition or displacement. One may read the EC50 as the concentration needed to bring the measured effect to its halfway point. Read a low EC50 as higher potency in that assay.

A short description of experiment [1]: Selectivity ratio of Ki for 5-HT7 receptor (unknown origin) to Ki for rat 5-HT6 receptor.
A short description of experiment [2]: Selectivity ratio of Ki for 5-HT2B receptor (unknown origin) to Ki for rat 5-HT6 receptor.
In experiment [3] the target is 5-hydroxytryptamine receptor 6 (Rattus norvegicus, UniProt P31388). The experiment can be described thus: Displacement of [3H] lysergic acid diethylamide from rat 5-HT6 receptor transfected in HEK293 cells after 60 mins by scintillation counter. The format is cell-based. For orientation: Loss of bound radioactivity is the signal in a displacement assay; it reports binding, not function.
Chain of 5-hydroxytryptamine receptor 6 (Rattus norvegicus, UniProt P31388) (P31388 whole entry): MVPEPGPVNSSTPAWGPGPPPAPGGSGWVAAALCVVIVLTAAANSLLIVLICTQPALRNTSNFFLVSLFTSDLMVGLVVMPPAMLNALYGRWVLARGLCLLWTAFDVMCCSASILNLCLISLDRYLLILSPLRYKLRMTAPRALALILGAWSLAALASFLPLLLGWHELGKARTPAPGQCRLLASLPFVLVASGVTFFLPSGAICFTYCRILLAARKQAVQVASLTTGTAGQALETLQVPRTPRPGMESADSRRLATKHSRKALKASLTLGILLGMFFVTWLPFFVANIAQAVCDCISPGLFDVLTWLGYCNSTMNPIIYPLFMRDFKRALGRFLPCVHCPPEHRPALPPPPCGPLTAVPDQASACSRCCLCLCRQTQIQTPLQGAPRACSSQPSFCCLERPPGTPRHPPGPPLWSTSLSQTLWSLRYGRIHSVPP

The target of experiment [4] is 5-hydroxytryptamine receptor 6 (Homo sapiens, UniProt P50406). In words: Agonist activity at 5-HT6 receptor (unknown origin).
Chain of 5-hydroxytryptamine receptor 6 (Homo sapiens, UniProt P50406) (P50406 whole entry): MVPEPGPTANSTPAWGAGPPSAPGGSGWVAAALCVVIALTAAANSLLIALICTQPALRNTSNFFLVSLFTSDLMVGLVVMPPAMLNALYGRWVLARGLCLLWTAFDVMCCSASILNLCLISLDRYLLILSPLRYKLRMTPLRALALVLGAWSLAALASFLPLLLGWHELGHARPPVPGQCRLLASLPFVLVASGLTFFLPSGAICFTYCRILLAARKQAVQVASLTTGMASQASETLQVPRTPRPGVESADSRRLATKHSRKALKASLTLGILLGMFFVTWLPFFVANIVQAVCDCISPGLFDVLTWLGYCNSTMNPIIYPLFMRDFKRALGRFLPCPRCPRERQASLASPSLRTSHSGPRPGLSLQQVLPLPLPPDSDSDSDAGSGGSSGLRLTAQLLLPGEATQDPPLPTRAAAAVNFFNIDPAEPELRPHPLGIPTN
For experiment [5], the target named is T1, Adrenergic receptor alpha-1 (Rattus norvegicus, UniProt P15823+P23944+P43140).
T1 sequence (P15823 whole entry): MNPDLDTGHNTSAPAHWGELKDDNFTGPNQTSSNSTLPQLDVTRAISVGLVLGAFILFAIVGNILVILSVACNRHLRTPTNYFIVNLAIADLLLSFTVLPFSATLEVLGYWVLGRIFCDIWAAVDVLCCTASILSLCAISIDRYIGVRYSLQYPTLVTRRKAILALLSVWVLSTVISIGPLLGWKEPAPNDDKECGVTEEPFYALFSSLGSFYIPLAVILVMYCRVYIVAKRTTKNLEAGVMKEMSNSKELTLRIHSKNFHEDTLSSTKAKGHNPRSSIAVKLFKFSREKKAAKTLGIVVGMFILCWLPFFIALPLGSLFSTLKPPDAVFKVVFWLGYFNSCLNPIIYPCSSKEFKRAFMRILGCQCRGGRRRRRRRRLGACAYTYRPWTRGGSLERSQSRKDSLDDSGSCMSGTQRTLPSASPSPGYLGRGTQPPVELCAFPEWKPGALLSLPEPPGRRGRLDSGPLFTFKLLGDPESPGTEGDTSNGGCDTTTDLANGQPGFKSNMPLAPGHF
T1 sequence (P23944 whole entry): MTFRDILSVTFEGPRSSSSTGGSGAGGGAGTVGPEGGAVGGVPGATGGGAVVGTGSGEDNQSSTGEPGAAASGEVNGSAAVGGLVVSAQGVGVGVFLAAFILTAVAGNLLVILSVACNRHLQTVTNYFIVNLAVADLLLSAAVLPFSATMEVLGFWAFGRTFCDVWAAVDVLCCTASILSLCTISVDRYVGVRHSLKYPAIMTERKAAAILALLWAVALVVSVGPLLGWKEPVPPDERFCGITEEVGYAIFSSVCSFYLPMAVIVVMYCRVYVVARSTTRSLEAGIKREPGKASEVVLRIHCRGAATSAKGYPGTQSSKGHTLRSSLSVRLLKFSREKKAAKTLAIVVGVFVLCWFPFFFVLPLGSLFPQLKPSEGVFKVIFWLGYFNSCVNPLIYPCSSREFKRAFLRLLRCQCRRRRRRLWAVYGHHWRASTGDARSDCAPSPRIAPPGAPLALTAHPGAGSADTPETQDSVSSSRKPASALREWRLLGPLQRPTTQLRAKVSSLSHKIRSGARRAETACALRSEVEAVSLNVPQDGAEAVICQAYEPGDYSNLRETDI
T1 sequence (P43140 whole entry): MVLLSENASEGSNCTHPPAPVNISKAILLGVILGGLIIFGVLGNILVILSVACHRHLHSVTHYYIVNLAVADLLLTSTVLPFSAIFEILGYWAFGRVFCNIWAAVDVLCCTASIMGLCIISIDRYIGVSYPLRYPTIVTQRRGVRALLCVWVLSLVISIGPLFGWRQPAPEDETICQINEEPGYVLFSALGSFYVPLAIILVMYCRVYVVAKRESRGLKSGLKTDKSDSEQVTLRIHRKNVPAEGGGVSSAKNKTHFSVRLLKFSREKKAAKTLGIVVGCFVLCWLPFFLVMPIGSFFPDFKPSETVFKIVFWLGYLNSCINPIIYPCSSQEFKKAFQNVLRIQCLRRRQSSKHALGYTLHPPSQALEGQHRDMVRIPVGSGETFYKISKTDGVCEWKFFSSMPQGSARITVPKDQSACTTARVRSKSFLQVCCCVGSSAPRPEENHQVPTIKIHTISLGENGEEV
In words: Binding affinity to rat alpha1 adrenergic receptor.

The target of experiment [6] is T2, Adrenergic receptor alpha-2 (Rattus norvegicus, UniProt P22086+P19328+P22909).
T2 sequence (P22086 whole entry): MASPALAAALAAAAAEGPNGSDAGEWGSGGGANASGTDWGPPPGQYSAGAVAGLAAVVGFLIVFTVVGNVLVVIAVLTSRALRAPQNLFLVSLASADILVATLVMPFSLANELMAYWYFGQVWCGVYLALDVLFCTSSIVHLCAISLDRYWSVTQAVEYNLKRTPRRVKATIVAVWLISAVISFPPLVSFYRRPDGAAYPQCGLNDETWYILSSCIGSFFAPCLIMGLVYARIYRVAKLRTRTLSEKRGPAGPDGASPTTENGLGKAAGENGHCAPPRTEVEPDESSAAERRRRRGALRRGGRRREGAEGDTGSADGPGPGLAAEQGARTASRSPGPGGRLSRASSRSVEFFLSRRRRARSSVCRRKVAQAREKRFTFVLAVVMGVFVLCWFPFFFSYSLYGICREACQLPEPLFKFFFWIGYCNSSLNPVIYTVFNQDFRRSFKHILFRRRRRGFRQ
T2 sequence (P19328 whole entry): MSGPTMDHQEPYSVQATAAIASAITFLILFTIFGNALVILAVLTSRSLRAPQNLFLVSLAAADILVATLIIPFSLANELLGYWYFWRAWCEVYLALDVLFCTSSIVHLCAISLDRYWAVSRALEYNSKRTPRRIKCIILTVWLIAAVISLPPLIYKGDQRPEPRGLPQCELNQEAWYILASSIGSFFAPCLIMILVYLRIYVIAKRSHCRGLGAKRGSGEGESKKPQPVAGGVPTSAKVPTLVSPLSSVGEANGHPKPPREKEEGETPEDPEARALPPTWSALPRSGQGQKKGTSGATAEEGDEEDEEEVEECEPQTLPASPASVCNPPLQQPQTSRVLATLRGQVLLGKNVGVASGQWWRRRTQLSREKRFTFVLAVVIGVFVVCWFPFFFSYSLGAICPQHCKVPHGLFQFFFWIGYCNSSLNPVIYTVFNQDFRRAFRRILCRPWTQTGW
T2 sequence (P22909 whole entry): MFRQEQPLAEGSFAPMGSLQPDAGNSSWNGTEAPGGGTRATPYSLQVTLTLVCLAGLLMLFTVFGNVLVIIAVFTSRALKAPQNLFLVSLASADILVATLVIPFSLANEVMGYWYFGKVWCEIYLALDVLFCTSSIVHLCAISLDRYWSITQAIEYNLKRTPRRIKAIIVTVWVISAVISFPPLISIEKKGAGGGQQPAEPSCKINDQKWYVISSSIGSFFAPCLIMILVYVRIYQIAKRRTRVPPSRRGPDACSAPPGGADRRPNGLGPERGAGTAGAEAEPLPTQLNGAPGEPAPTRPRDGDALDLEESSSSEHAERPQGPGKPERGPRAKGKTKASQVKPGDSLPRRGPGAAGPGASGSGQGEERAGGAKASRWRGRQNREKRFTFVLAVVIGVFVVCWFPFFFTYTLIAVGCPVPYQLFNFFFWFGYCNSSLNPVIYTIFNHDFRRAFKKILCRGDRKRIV
In words: Binding affinity to rat alpha2 adrenergic receptor.

The target in experiment [7] is T3, Adrenergic receptor alpha-2 (Homo sapiens, UniProt P08913+P18825+P18089).
T3 sequence (P08913 whole entry): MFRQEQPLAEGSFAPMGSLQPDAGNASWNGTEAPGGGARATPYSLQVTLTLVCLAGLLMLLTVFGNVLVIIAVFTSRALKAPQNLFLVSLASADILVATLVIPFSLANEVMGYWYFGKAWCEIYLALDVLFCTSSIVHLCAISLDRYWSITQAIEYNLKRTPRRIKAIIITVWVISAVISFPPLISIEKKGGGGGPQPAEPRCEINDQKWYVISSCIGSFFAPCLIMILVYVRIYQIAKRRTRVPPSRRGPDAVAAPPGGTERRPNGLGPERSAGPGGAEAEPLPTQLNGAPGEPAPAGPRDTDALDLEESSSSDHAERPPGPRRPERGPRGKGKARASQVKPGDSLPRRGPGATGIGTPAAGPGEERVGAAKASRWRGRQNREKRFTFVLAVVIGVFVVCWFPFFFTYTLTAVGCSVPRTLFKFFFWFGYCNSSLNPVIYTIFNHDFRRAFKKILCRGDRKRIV
T3 sequence (P18825 whole entry): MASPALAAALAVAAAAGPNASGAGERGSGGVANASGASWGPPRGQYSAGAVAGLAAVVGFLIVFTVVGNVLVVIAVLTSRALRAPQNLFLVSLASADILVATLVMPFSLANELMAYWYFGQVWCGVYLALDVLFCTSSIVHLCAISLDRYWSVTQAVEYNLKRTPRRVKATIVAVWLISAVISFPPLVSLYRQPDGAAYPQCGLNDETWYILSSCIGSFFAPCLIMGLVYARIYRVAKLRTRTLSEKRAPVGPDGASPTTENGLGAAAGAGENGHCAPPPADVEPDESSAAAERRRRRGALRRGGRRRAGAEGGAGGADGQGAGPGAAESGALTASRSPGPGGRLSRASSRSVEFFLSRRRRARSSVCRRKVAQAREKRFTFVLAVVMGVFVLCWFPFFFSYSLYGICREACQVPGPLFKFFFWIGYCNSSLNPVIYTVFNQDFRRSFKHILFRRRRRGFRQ
T3 sequence (P18089 whole entry): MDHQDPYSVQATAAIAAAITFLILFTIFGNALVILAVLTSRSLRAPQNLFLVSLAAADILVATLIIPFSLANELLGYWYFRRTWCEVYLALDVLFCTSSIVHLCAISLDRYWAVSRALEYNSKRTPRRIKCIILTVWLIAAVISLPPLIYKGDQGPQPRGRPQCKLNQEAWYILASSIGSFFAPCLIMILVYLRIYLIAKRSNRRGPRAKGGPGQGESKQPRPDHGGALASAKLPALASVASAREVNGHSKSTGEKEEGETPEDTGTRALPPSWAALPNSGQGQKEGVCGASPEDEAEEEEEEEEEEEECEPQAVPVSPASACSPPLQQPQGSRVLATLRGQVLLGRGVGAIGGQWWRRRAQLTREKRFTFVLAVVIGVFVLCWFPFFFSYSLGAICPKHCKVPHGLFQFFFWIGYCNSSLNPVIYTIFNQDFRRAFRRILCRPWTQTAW
In words: Binding affinity to human recombinant alpha2 adrenergic receptor. The format is protein assay.

Experiment [8] has as its target 5-hydroxytryptamine receptor 2B (Homo sapiens, UniProt P41595). In words: Binding affinity to 5-HT2B receptor (unknown origin).
The target in experiment [9] is 5-hydroxytryptamine receptor 7 (Homo sapiens, UniProt P34969). In words: Binding affinity to 5-HT7 receptor (unknown origin).
Chain of 5-hydroxytryptamine receptor 7 (P34969 whole entry): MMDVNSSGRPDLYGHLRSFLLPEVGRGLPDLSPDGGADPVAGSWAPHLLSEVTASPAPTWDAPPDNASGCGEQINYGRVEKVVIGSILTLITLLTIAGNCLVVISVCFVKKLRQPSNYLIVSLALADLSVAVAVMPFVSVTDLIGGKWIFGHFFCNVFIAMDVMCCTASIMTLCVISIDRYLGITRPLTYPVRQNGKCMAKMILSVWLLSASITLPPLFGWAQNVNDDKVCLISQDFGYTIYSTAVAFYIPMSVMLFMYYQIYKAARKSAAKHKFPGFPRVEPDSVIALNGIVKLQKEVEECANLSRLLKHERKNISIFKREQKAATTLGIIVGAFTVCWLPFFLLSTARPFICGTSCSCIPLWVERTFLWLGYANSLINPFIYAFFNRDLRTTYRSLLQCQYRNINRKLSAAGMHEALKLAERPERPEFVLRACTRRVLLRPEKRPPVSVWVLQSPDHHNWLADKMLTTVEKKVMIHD
For experiment [10], the species on record is Homo sapiens. The experiment can be described thus: Selectivity ratio of Ki for human 5-HT1B receptor to Ki for human 5-HT6 receptor.
The species named for experiment [11] is Homo sapiens. The experiment can be described thus: Selectivity ratio of Ki for human 5-HT5A receptor to Ki for human 5-HT6 receptor.
Experiment [12] is filed under the species Homo sapiens. In words: Selectivity ratio of Ki for human 5-HT1D receptor to Ki for human 5-HT6 receptor.
The species named for experiment [13] is Homo sapiens. The experiment can be described thus: Selectivity ratio of Ki for human 5-HT1A receptor to Ki for human 5-HT6 receptor.
Experiment [14] is filed under the species Homo sapiens. The experiment can be described thus: Selectivity ratio of Ki for human 5-HT7 receptor to Ki for human 5-HT6 receptor.
Experiment [15] is filed under the species Homo sapiens. In words: Selectivity ratio of Ki for human 5-HT1F receptor to Ki for human 5-HT6 receptor.

Chain of 5-hydroxytryptamine receptor 2B (P41595 whole entry): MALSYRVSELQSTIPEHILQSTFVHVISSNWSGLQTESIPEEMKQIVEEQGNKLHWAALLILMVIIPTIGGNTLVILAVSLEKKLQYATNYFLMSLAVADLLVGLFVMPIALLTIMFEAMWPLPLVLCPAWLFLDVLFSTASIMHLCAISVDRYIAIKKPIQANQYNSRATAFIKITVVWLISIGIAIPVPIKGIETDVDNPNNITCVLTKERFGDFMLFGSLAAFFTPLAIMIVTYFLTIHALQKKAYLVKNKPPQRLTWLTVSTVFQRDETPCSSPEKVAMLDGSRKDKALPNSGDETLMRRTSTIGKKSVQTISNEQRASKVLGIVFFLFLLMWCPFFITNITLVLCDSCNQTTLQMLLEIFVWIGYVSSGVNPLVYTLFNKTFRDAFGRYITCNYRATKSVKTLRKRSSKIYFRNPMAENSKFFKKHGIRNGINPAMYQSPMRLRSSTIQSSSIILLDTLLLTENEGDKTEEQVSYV

Regarding `Cc1[nH]c2ccc(Cl)cc2c1CCN(C)C`, the Ratio Ki in experiment [1] was 10; in experiment [2] it was 8. In addition, the Ki in experiment [3] was 28.8 nM; in experiment [5], 300 nM; in experiment [6], 300 nM; in [7] it was 300 nM; in [8], 245 nM; in experiment [9] it was 290 nM. The EC50 in experiment [4] worked out at 44.8 nM.
As for `CN(C)CCc1cn(S(=O)(=O)c2ccccc2)c2ccccc12`, the Ratio Ki in the experiment filed under Homo sapiens [10], in the experiment listed under Homo sapiens [11], in the experiment listed under Homo sapiens [12], in the experiment listed under Homo sapiens [13], in the experiment listed under Homo sapiens [14] and in the experiment listed under Homo sapiens [15] was more than 100 each time.
